Measured values reported in PubChem BioAssay (NCI).
Where “and” joins values, the source holds several entries; their conditions need not be identical. Equal values may be shown once.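 Cultured in 96-well plates, cells were exposed to test compound for 48 hours across five concentrations. GI50: concentration for 50% inhibition of growth. TGI denotes the concentration required for complete inhibition of growth.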

Experiments:
Experiment in all cases: inhibition of tumour cell growth, NCI panel, 48 h
[1] = tested on: LOX IMVI melanoma
[2] = tested on: PC-3 prostate
[3] = tested on: UO-31 renal
[4] = tested on: NCI/ADR-RES ovarian
[5] = tested on: U251 CNS
[6] = tested on: NCI-H226 lung
[7] = tested on: T-47D breast
[8] = tested on: ACHN renal

Row | SMILES | GI50 [1] | TGI [1] | GI50 [2] | TGI [2] | GI50 [3] | TGI [3] | GI50 [4] | TGI [4] | GI50 [5] | TGI [5] | GI50 [6] | TGI [6] | GI50 [7] | TGI [7] | GI50 [8] | TGI [8]
1 | O=[N+]([O-])c1cc(Br)cc2c1[nH]c1ccc(Br)cc12 | 4.9 µM | > 100 µM | 10.2 µM | > 100 µM | 2.08 µM | 10.4 µM | 6.09 µM | 62.7 µM | 14.8 µM | 93.2 µM | 3.24 µM | 21.9 µM | 6.76 µM | 77.9 µM | 3.31 µM | 19.9 µM
2 | N#CSCC1CC(O)(c2ccccc2)C(c2ccccc2)C(c2ccc(F)cc2)O1 (stereo not given) | 1.64 µM | 3.18 µM | 2.14 µM | 11.3 µM | 2.62 µM | 11.9 µM | 3.13 µM | 11.9 µM | 3.66 µM | 15.1 µM | 4.89 µM | 16.1 µM | 3.17 µM | > 37.3 µM | 3.42 µM | 11.4 µM
3 | CN(/N=N/c1nc(OCc2ccccc2)c2[nH]cnc2n1)C(=O)N(C)/N=N/c1nc(OCc2ccccc2)c2[nH]cnc2n1 | 37 µM | > 100 µM | 40.5 µM | > 100 µM | 36.1 µM | > 100 µM | 47.2 µM | > 100 µM | 49.9 µM | > 100 µM | 38.5 µM | > 100 µM | 39.6 µM | > 100 µM | 31.3 µM | > 100 µM
4 | Cc1c(CN2CCC(Nc3ncnc4sc(CC(F)(F)F)cc34)CC2)ccc2c1cc(C#N)n2Cc1cn[nH]c1 | 1.35 µM and 2.36 µM | 2.88 µM and 7.5 µM | 2.31 µM and 2.33 µM | 18.9 µM and > 32.7 µM | 2.25 µM and 2.46 µM | 20.1 µM and > 41.2 µM | 4.92 µM and 7.36 µM | 20.5 µM and > 25.8 µM | 4.65 µM and 3.16 µM | 19.6 µM | 7.58 µM and 4.31 µM | 40.2 µM and 36.9 µM | 0.897 µM and 1.06 µM | 16.9 µM | 4.47 µM and 10.7 µM | 19.5 µM and > 38 µM
5 | COc1ccc(C2=C(c3cn(C)c4ccccc34)C(=O)NC2=O)cc1OC | 8.12 µM | > 25 µM | 7.29 µM | > 25 µM | 4.83 µM | > 25 µM | 7.99 µM | > 25 µM | 7.62 µM | > 25 µM | 10.8 µM | > 25 µM | 7.21 µM | > 25 µM | 6.35 µM | > 25 µM
